Results: ChEMBL document CHEMBL1137032, “Nonpeptide alpha V beta 3 antagonists. Part 10: In vitro and in vivo evaluation of a potent 7-methyl substituted tetrahydro-[1,8]naphthyridine derivative” (Bioorg Med Chem Lett, 2004)
Several values for one entry are separate records, joined by “and”; a condition that tells them apart may be missing. Equal values may be shown once.

Experiments:
[1] = Human plasma binding affinity was determined; format: ADME, cell-free; conditions: read-out: PB (converted)
[2] = Partition coefficient (logP); format: physicochemical; conditions: octanol/water
[3] = molecular target: Integrin alpha-V/beta-3 (Homo sapiens) (UniProt P05106+P06756); test: In vitro binding affinity against integrin Alpha-v Beta3 receptor in SPA assay; format: protein-complex assay
[4] = Half life in dog; format: ADME, Canis lupus familiaris; conditions: in vivo
[5] = Bioavailability in dog; format: ADME, organism-based, Canis lupus familiaris; conditions: in vivo
[6] = Plasma clearance in dog; format: ADME, organism-based, Canis lupus familiaris; conditions: in vivo
[7] = Bioavailability in rat; format: ADME, organism-based; conditions: in vivo
[8] = Plasma clearance in rhesus monkey; format: ADME, organism-based; conditions: cercopithecidae, in vivo
[9] = Bioavailability in rhesus Monkey; format: ADME, organism-based, Macaca mulatta; conditions: in vivo
[10] = Effect was measured in male rats on distal femoral metaphysis bone mineral density; format: ADME; conditions: rat
[11] = Plasma clearance in rat; format: ADME, organism-based; conditions: in vivo
[12] = Clearance value in rat; format: ADME, organism-based; conditions: in vivo
[13] = Clearance value in dog; format: ADME, organism-based, Canis lupus familiaris; conditions: in vivo
[14] = Bioavailability in rhesus monkey; format: ADME, organism-based; conditions: in vivo
[15] = Clearance value in rhesus monkey; format: ADME, organism-based; conditions: cercopithecidae, in vivo

| fraction unbound [1] | logP [2] | SPAV3 [3] | half-life [4] | bioavailability [5] | clearance [6] | bioavailability [7] | clearance [8] | bioavailability [9] | clearance [11] | clearance [12] | clearance [13] | bioavailability [14] | clearance [15] | Structure (SMILES) | DFMBMD [10] |
| --- | --- | --- | --- | --- | --- | --- | --- | --- | --- | --- | --- | --- | --- | --- | --- |
| 0.08 | 0.56 | 0.11 nM | – | – | – | – | – | – | – | – | – | – | – | COc1ccc([C@H](CC(=O)O)N2CCN(CCCc3ccc4c(n3)N[C@H](C)CC4)C2=O)cn1 | – |
| 0.22 | 0.62 | 0.13 nM | 2.2 h | 55% | 18 mL/min/kg | – | – | – | – | – | – | – | – | COc1ccc([C@H](CC(=O)O)N2CCN(CCCc3nc4c(cc3C)CCCN4)C2=O)cn1 | – |
| 0.05 | 0.69 | 0.11 nM | – | 83% | 1.7 mL/min/kg | 50% | 3.5 mL/min/kg | 75% | 41 mL/min/kg | – | – | – | – | COc1ccc([C@H](CC(=O)O)N2CCN(CCCc3ccc4c(n3)N[C@@H](C)CC4)C2=O)cn1 | 137 mg/Ecm and 147.9 mg/Ecm and 161 mg/Ecm and 141.1 mg/Ecm and 156.6 mg/Ecm |
| 0.12 | – | 0.08 nM | – | – | – | – | – | – | – | 47 mL/min/kg | 6.4 mL/min/kg | 74% | 9 mL/min/kg | COc1ccc([C@H](CC(=O)O)N2CCN(CCCc3ccc4c(n3)NCCC4)C2=O)cn1 | 133 mg/Ecm and 145 mg/Ecm and 157.2 mg/Ecm |
